{
  "source": "patent US20080233208A1",
  "about": "“USE OF ERIANIN IN PREPARING PHARMACEUTICAL FOR TREATING TUMORS” (The Jiang Cell Biomedical Research Co., Ltd., priority 2007, published 2008)",
  "key": {"[1]": {"conditions": "mice bearing Lewis lung cancer, i.p. x 10 qd"}, "Lewis lung cancer": {"system": "Lewis lung cancer", "assay": "Tumor inhibition in murine model with Lewis lung cancer", "type": "in vivo, C57BL/6J mice", "conditions": "for Tumor inhibiting rate / Tumor weight: 19th day after inoculation"}, "[2]": {"conditions": "in vivo; cited from earlier work"}, "liver cancer of mouse": {"system": "liver cancer of mouse", "conditions": "cited from earlier work"}, "[3]": {"conditions": "compared with 5FU; cited from earlier work"}, "[4]": {"system": "human leukemia HL-60 cells", "conditions": "cited from earlier work"}, "tumor cell strain K256": {"system": "tumor cell strain K256", "conditions": "among dihydrobibenzyls and phenanthrenes in Dendrobium chrysotoxum; cited from earlier work"}},
  "data": [
    {"smiles": "O=P1(N(CCCl)CCCl)NCCCO1", "note": "(stereo not shown) [CTX, Cyclophosphamide, reference compound]", "values": [
      {"measurement": "General condition of the mice (signs of toxicity)", "setting": "[1]", "result": "signs of athrepsia, listlessness, and pilo-erection"},
      {"measurement": "Tumor inhibiting rate", "setting": "Lewis lung cancer; 30 mg/kg i.p. x 10 qd", "result": 63.2, "unit": "%"},
      {"measurement": "Tumor weight", "setting": "Lewis lung cancer; 30 mg/kg i.p. x 10 qd", "result": "0.96 ± 0.13"}
    ]},
    {"smiles": "COc1ccc(/C=C\\c2cc(OC)c(OC)c(OC)c2)cc1O", "note": "[Combretastatin A-4]", "values": [
      {"measurement": "LD50", "setting": "[2]", "result": 500, "unit": "mg/kg"}
    ]},
    {"smiles": "N.N.[Cl][Pt][Cl]", "note": "[DDP, Cisplatin, reference compound]", "values": [
      {"measurement": "Tumor inhibiting rate", "setting": "Lewis lung cancer; 1 mg/kg i.p. x 10 qd", "result": 51.4, "unit": "%"},
      {"measurement": "Tumor weight", "setting": "Lewis lung cancer; 1 mg/kg i.p. x 10 qd", "result": "1.26 ± 0.15"}
    ]},
    {"smiles": "COc1ccc(CCc2cc(OC)c(OC)c(OC)c2)cc1O", "note": "[Erianin]", "values": [
      {"measurement": "Death", "setting": "[1]", "result": "no death occurred"},
      {"measurement": "General condition of the mice (signs of toxicity)", "setting": "[1]", "result": "normal appetite, bright hair and free movements"},
      {"measurement": "tumor inhibitory rate", "setting": "liver cancer of mouse", "result": 50.82, "unit": "%"},
      {"measurement": "Tumor inhibiting rate", "setting": "Lewis lung cancer; 50 mg/kg i.p. x 10 qd", "result": 38.8, "unit": "%"},
      {"measurement": "Tumor weight", "setting": "Lewis lung cancer; 50 mg/kg i.p. x 10 qd", "result": "1.59 ± 0.26"},
      {"measurement": "Tumor inhibiting rate", "setting": "Lewis lung cancer; 100 mg/kg i.p. x 10 qd", "result": 46.0, "unit": "%"},
      {"measurement": "Tumor weight", "setting": "Lewis lung cancer; 100 mg/kg i.p. x 10 qd", "result": "1.40 ± 0.31"},
      {"measurement": "Tumor inhibiting rate", "setting": "Lewis lung cancer; 200 mg/kg i.p. x 10 qd", "result": 55.6, "unit": "%"},
      {"measurement": "Tumor weight", "setting": "Lewis lung cancer; 200 mg/kg i.p. x 10 qd", "result": "1.15 ± 0.14"},
      {"measurement": "Result assessment of tumor inhibiting effect", "setting": "Lewis lung cancer; mice bearing Lewis lung cancer, in words", "result": "quite effective"},
      {"measurement": "toxic side effect", "setting": "[3]", "result": "far lower than 5FU"},
      {"measurement": "inhibition of growth of HL-60 cells", "setting": "[4]", "result": "significantly inhibited"},
      {"measurement": "inhibitory effect on the growth of tumor cell strain K256", "setting": "tumor cell strain K256", "result": "most active"}
    ]}
  ]
}
